Results reported in PMC7359744 (ACS chemical neuroscience, 2020).

What was measured:
male C57 BL/6 mice = assay: animal or person; format: in vivo
[1] = molecular target: human κ-opioid receptor (OPRK1) (Homo sapiens, UniProt P41145); format: cell-based; settings: read-out: KOR EC50 ± SEM
[2] = test system: human μ-opioid receptor β-arrestin-2; format: cell-based

Chain of human κ-opioid receptor (OPRK1) (P41145 whole entry): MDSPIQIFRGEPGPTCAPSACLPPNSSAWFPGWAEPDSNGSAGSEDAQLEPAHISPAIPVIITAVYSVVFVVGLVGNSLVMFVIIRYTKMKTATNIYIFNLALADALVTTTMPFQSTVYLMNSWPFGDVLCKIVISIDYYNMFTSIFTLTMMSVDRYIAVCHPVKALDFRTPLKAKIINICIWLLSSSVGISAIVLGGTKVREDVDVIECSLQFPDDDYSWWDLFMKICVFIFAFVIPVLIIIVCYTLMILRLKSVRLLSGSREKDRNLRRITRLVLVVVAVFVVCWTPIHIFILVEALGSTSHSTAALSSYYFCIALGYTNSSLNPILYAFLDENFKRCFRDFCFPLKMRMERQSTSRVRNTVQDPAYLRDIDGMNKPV

Row | Structure (SMILES) | antinociceptive ED50, day 1 (male C57 BL/6 mice; mouse, in vivo) | antinociceptive ED50, day 9 (male C57 BL/6 mice; mouse, in vivo) | antinociceptive tolerance on day 9 compared to day 1 (male C57 BL/6 mice; mouse, in vivo, sc) | EC50 [1] | Bias Factor [2] | β-arrestin recruitment % Efficacy [2] | ED50 (male C57 BL/6 mice; Mus musculus, 24 h, read-out: antinociceptive ED50, day 1) | onset of tolerance (male C57 BL/6 mice; mouse, in vivo, sc)
1 | COC(=O)[C@@H]1C=C(OC(=O)c2ccccc2)C(=O)[C@H]2[C@@]1(C)CC[C@H]1C(=O)O[C@H](c3ccoc3)C[C@]21C [Compound 1, kurkinorin] | 5 ± 0.51 mg/kg | 7.9 ± 0.11 mg/kg | reduced tolerance compared to morphine | > 10 µM |  |  |  | 
2 | C[C@@H](NC(=O)[C@@H](N)Cc1ccc(O)cc1)C(=O)NCC(=O)N(C)[C@@H](Cc1ccccc1)C(=O)NCCO [DAMGO] |  |  |  |  | 1 | 42 ± 5 (97) % |  | 
3 | CN1CC[C@]23c4c5ccc(O)c4O[C@H]2[C@@H](O)C=C[C@H]3[C@H]1C5 [Morphine] |  |  | significant induction of tolerance |  |  |  | 6.43 ± 0.27 mg/kg | 5 days
